According to patent US20110045101A1, “FUNGICIDAL SUBSTITUTED AZOLES” (E.I. Du Pont De Nemours and Company, priority 2009, published 2011):
Marks after values point to notes of the source that are not given here.

Columns and labels:
Format in all cases: in vivo
Conditions in all cases: 100 = 100% disease control
Botrytis cinerea = test: Test C: tomato Botrytis on tomato seedlings, sprayed the day before inoculation, visual disease rating
Summary of the method: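 Rate: 200 ppm sprayed to run-off, corresponding to 500 g/ha; flagged values used 40 ppm. Vehicle was aqueous acetone (1:1) plus 250 ppm surfactant, compounds predissolved in acetone at 3% of volume. Plants were tomato seedlings.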

Alternaria solani = test: Test D: tomato early blight, sprayed the day before inoculation, visual disease rating
Summary of the method: (§1)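 Plants received a run-off spray at 200 ppm (equivalent to 500 g/ha) or, for starred values, 40 ppm. Formulation used acetone at 3% of volume in a 50/50 acetone/water mix carrying 250 ppm Trem® 014.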

Septoria nodorum = test: Test F: wheat glume blotch on wheat seedlings, sprayed the day before inoculation, visual disease rating
Summary of the method: as §1

Septoria tritici = test: Test G: wheat leaf blotch on wheat seedlings, sprayed the day before inoculation, visual disease rating
Summary of the method: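 Seedlings receive a protective spray of test suspension in acetone/water carrying 250 ppm surfactant, mostly at 200 ppm and at 40 ppm where marked. They are inoculated the next day, kept saturated at 24° C for 48 h, then held at 20° C for 19 days before visual scoring.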

[1] = tested on: Puccinia recondita f. sp. tritici; test: Test H: wheat leaf rust, test suspension sprayed after inoculation of wheat seedlings, visual disease rating
Summary of the method: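 Wheat seedlings inoculated with P. recondita spores, held 24 h saturated at 20 °C, then 2 days in growth chamber at 20 °C; compound suspension (acetone/water with Trem 014) sprayed to run-off afterwards. Rated visually; 200 ppm (≈500 g/ha) unless marked *, which denotes 40 ppm.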

[2] = tested on: Puccinia recondita f. sp. tritici; test: Test I: wheat leaf rust on wheat seedlings, sprayed the day before inoculation, visual disease rating
Summary of the method: as §1

[3] = tested on: Erysiphe graminis f. sp. tritici; test: Test J: wheat powdery mildew on wheat seedlings, sprayed the day before inoculation, visual disease rating
Summary of the method: as §1

[4] = 200 ppm, 0 = no control relative to controls
[5] = 40 ppm (marked *), 0 = no control

SMILES | Test C disease control rating (Botrytis cinerea; [4]) [%] | Test D disease control rating (Alternaria solani; [4]) [%] | Test F disease control rating (Septoria nodorum; [4]) [%] | Test G disease control rating (Septoria tritici; [4]) [%] | Test H disease control rating [1, 4] [%] | Test I disease control rating [2, 4] [%] | Test J disease control rating [3, 4] [%] | further results
COc1cc(F)c(-c2c(C)nnn2-c2ccc(Cl)cc2)c(F)c1 [compound 628] | 99 | 100 | 0 | 100 | 0 | 99 | 99 | –
COc1ccc(F)c(-c2c(Cl)nc(C)n2-c2ccc(C)cc2)c1F [compound 333] | – | – | – | – | – | – | – | Test C disease control rating (Botrytis cinerea; [5]): 100* %; Test D disease control rating (Alternaria solani; [5]): 100* %; Test F disease control rating (Septoria nodorum; [5]): 99* %; Test G disease control rating (Septoria tritici; [5]): 91* %; Test H disease control rating [1, 5]: 0* %; Test I disease control rating [2, 5]: 100* %; Test J disease control rating [3, 5]: 100* %
COc1cc(F)c(-c2c(Cl)nc(Cl)n2-c2ccc(C)c(Cl)c2)c(F)c1 [compound 502] | – | – | – | – | – | – | – | Test C disease control rating (Botrytis cinerea; 40 ppm (marked *)): 90* %; Test D disease control rating (Alternaria solani; 40 ppm (marked *)): 92* %; Test F disease control rating (Septoria nodorum; 40 ppm (marked *)): 60* %; Test G disease control rating (Septoria tritici; 40 ppm (marked *)): 93* %; Test H disease control rating ([1]; 40 ppm (marked *)): 0* %; Test I disease control rating ([2]; 40 ppm (marked *)): 98* %; Test J disease control rating ([3]; 40 ppm (marked *)): 100* %
COc1cc(F)c(-c2c(Br)nn(C)c2-c2ccc(Cl)cc2)c(F)c1 [compound 424] | 100 | 100 | 99 | 100 | 0 | 94 | 100 | –
CCOc1cc(F)c(-c2c(Cl)ncn2-c2ccc(F)cc2)c(F)c1 [compound 702] | 100 | 100 | 99 | 99 | 59 | 86 | 99 | –
COc1cc(F)c(-c2c(Br)nc(Br)n2-c2ccc(C)nc2)c(F)c1 [compound 554] | 100 | 100 | 100 | 99 | 100 | 100 | 100 | –
COc1cc(F)c(-c2c(Cl)nc(C)n2-c2ccc(OC)nc2)c(F)c1 [compound 714] | 100 | 100 | 100 | 99 | 100 | 100 | 100 | –
CN(C)c1ccc(-n2cnc(Cl)c2-c2c(F)cccc2F)cc1Cl [compound 650] | – | – | – | – | – | – | – | Test C disease control rating (Botrytis cinerea; 40 ppm (marked *)): 0* %; Test D disease control rating (Alternaria solani; 40 ppm (marked *)): 0* %; Test F disease control rating (Septoria nodorum; 40 ppm (marked *)): 0* %; Test G disease control rating (Septoria tritici; 40 ppm (marked *)): 0* %; Test H disease control rating ([1]; 40 ppm (marked *)): 9* %; Test I disease control rating ([2]; 40 ppm (marked *)): 0* %; Test J disease control rating ([3]; 40 ppm (marked *)): 0* %
COc1cc(OC)cc(-n2c(Br)nc(C)c2-c2c(F)cc(OC)cc2F)c1 [compound 657] | – | – | – | – | – | – | – | Test C disease control rating (Botrytis cinerea; 40 ppm (marked *)): 99* %; Test D disease control rating (Alternaria solani; 40 ppm (marked *)): 99* %; Test F disease control rating (Septoria nodorum; 40 ppm (marked *)): 99* %; Test G disease control rating (Septoria tritici; 40 ppm (marked *)): 99* %; Test H disease control rating ([1]; 40 ppm (marked *)): 100* %; Test I disease control rating ([2]; 40 ppm (marked *)): 100* %; Test J disease control rating ([3]; 40 ppm (marked *)): 96* %
Fc1ccc(-n2cnc(Br)c2-c2c(F)ccc(F)c2Cl)cc1 [compound 508] | 100 | 100 | 0 | 94 | 78 | 99 | 99 | –
COc1ccc(F)c(-c2c(Cl)nc(Br)n2-c2ccc(Cl)cc2)c1Cl [compound 501] | 98 | 99 | 98 | 95 | 0 | 67 | 99 | –
N#Cc1ccc(F)c(-c2c(Cl)nc(Cl)n2-c2ccc(Cl)cc2)c1F [compound 407] | 100 | 0 | 92 | 96 | 0 | 97 | 98 | –
CCOc1ccc(F)c(-c2c(Cl)nc(C)n2-c2cccc(F)c2)c1F [compound 724] | 100 | 100 | 97 | 98 | 0 | 100 | 99 | –
Cc1ccc(-n2c(Cl)nc(Cl)c2-c2ccc(F)cc2Cl)cc1 [compound 282] | – | – | – | – | – | – | – | Test C disease control rating (Botrytis cinerea; 200 ppm, 0 = no control): 99%; Test D disease control rating (Alternaria solani; 200 ppm, 0 = no control): 99%; Test F disease control rating (Septoria nodorum; 200 ppm, 0 = no control): 0%; Test G disease control rating (Septoria tritici; 200 ppm, 0 = no control): 93%; Test H disease control rating ([1]; 200 ppm, 0 = no control): 65%; Test I disease control rating ([2]; 200 ppm, 0 = no control): 99%; Test J disease control rating ([3]; 200 ppm, 0 = no control): 100%
Fc1ccc(F)c(-c2c(Cl)nc(Cl)n2Cc2ccc(Cl)cc2)c1F [compound 285] | – | – | – | – | – | – | – | Test C disease control rating (Botrytis cinerea; 200 ppm, 0 = no control): 99%; Test D disease control rating (Alternaria solani; 200 ppm, 0 = no control): 85%; Test F disease control rating (Septoria nodorum; 200 ppm, 0 = no control): 83%; Test G disease control rating (Septoria tritici; 200 ppm, 0 = no control): 94%; Test H disease control rating ([1]; 200 ppm, 0 = no control): 98%; Test I disease control rating ([2]; 200 ppm, 0 = no control): 100%; Test J disease control rating ([3]; 200 ppm, 0 = no control): 100%
Fc1cc(-n2c(Cl)nc(Cl)c2-c2cnc3ccccc3c2)ccc1Cl [compound 436] | 87 | 98 | 0 | 81 | 0 | 0 | 0 | –
N#Cc1ccc(F)c(-c2c(Cl)ncn2-c2ccc(Cl)cc2)c1F [Compound 386, 3-[4-chloro-1-(4-chlorophenyl)-1H-imidazol-5-yl]-2,4-difluorobenzonitrile] | – | – | – | – | – | – | – | pest or weed control at 200 ppm (Botrytis cinerea; Botrytis cinerea, 120 h, 200 ppm, 0 = no control relative to controls): 99%; pest or weed control at 200 ppm (Alternaria solani; Alternaria solani, 168 h, 200 ppm, 0 = no control relative to controls): 100%; pest or weed control at 200 ppm (Septoria nodorum; Parastagonospora nodorum, 264 h, 200 ppm, 0 = no control relative to controls): 0%; pest or weed control at 200 ppm (Septoria tritici; Zymoseptoria tritici, 504 h, 200 ppm, 0 = no control relative to controls): 96%; pest or weed control at 200 ppm ([1]; Puccinia recondita, 96 h, 200 ppm, 0 = no control relative to controls): 0%; pest or weed control at 200 ppm ([2]; Puccinia recondita, 168 h, 200 ppm, 0 = no control relative to controls): 98%; pest or weed control at 200 ppm ([3]; Blumeria graminis, 168 h, 200 ppm, 0 = no control relative to controls): 95%
COc1ccc(F)c(-c2c(Cl)nc(Cl)n2-c2ccc(Cl)c(C)c2)c1F [compound 399] | 100 | 99 | 82 | 96 | 0 | 82 | 100 | –
